This is an account of results in ChEMBL document CHEMBL6078697, “Synthesis and Evaluation of 9-epi-Koshidacin B as Selective Inhibitor of Histone Deacetylase 1” (J Nat Prod, 2024).

For experiment [1], the target named is T1, Histone deacetylase 1 (Homo sapiens, UniProt Q13547). Put plainly: Inhibition of HDAC1 (unknown origin).
Experiment [2] has as its target T1, Histone deacetylase 1. Put plainly: Inhibition of HDAC1 (unknown origin) using RHKK(Ac)AMC as substrate.
For experiment [3], the target named is T2, Protein deacetylase HDAC6 (Homo sapiens, UniProt Q9UBN7).
T2 sequence (Q9UBN7 whole entry): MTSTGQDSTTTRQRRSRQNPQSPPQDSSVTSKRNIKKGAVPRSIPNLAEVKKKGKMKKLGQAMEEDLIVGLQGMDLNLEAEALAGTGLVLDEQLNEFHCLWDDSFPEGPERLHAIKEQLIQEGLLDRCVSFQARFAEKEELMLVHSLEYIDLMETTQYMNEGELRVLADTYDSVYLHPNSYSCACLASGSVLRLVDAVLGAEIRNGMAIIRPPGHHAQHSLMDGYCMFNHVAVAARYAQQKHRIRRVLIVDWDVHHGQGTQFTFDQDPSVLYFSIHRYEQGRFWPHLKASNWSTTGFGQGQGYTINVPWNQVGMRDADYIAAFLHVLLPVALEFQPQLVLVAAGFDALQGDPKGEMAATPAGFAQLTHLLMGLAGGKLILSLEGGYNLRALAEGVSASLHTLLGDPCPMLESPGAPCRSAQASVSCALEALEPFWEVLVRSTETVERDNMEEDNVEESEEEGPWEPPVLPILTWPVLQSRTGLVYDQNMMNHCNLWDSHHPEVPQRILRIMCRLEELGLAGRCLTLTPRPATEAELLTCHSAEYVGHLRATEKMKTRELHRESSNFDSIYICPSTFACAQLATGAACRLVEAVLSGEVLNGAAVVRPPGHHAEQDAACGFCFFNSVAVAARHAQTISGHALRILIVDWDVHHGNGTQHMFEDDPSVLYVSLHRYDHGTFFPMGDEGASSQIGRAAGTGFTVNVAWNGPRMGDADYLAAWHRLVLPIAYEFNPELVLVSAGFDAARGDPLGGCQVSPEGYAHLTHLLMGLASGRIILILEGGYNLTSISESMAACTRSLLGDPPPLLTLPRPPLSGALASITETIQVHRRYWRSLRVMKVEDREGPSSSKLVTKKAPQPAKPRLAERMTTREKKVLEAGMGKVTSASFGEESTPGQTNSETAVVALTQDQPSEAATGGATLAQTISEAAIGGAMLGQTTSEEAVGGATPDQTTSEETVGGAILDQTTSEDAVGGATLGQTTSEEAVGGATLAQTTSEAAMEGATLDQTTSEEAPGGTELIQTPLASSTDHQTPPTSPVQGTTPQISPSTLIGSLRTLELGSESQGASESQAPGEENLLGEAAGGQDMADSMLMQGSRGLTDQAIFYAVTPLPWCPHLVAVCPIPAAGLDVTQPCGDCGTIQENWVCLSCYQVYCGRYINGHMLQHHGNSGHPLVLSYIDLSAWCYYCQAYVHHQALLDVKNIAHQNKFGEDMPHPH
Put plainly: Inhibition of HDAC6 (unknown origin) using RHKK(Ac)AMC as substrate.

Experiment [4] is described as follows: Selectivity ratio of IC50 for inhibition of HDAC4 (unknown origin) to IC50 for inhibition of HDAC1 (unknown origin).
Experiment [5] is described as follows: Selectivity ratio of IC50 for inhibition of HDAC6 (unknown origin) to IC50 for inhibition of HDAC1 (unknown origin).
Another experiment concerns the target Histone deacetylase 4 (Homo sapiens, UniProt P56524). Briefly: Inhibition of HDAC4 (unknown origin) using trifluoroacetyl lysine as substrate.
Experiment [6] deals with T1, Histone deacetylase 1. Briefly: Binding affinity to HDAC1 (unknown origin) assessed as inhibition constant.

One may read the IC50 as the concentration at which inhibition is half-maximal. A higher IC50 goes with weaker potency. One may read the Ki as the equilibrium dissociation constant of an inhibitor or competing ligand from its target.

T1 sequence (Q13547 whole entry): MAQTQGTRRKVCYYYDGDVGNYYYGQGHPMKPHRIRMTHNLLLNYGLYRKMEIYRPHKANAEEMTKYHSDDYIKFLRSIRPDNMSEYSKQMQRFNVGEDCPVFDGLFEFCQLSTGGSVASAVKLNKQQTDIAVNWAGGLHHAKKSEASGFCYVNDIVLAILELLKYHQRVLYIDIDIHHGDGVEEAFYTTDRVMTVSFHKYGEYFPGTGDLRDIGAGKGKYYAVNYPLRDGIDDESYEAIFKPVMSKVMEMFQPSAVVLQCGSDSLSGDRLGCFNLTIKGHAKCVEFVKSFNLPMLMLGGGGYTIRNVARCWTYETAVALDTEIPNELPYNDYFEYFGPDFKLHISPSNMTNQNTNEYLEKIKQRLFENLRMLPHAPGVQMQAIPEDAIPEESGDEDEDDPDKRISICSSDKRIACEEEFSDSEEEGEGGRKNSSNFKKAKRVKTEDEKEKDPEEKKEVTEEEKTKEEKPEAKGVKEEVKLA
Histone deacetylase 4, sequence (P56524 whole entry): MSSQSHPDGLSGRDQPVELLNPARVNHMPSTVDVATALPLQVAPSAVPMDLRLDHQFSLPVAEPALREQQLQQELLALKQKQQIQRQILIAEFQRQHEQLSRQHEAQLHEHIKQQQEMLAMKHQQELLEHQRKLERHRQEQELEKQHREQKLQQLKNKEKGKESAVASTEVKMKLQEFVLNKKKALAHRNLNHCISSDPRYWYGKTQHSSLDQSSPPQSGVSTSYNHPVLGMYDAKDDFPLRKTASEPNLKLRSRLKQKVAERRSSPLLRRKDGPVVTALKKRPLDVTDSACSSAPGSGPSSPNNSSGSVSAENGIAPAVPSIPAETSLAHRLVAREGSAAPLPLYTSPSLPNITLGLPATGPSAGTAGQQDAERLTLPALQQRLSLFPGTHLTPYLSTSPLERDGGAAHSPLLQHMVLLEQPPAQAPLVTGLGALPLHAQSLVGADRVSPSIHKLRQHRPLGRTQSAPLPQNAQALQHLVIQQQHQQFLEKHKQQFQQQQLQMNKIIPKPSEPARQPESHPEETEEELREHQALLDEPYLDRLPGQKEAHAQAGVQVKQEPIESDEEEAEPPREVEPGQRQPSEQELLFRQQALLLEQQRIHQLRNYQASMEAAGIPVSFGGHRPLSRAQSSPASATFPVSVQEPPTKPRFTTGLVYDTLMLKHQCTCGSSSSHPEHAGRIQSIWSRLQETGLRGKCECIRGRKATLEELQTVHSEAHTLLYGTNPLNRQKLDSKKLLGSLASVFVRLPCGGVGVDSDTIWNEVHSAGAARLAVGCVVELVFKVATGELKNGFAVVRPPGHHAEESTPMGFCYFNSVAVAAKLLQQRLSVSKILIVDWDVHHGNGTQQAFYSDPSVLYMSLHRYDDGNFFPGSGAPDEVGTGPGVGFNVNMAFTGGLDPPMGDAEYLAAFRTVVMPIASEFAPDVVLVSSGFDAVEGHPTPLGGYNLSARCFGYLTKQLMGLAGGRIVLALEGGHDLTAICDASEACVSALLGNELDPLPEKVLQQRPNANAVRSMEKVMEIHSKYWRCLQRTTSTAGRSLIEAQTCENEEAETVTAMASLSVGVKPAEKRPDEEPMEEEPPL

Take `CC[C@]1(C)NC(=O)[C@H](CCCCCC(=O)[C@@H](C)O)NC(=O)[C@H]2CCCN2C(=O)[C@H](Cc2ccc(O)cc2)NC1=O`: the half-inhibitory concentration (IC50) against Histone deacetylase 1 [1] is 0.0215 µM.

`C[C@H](O)C(=O)CCCCC[C@@H]1NC(=O)[C@H]2CCCN2C(=O)[C@H](Cc2ccccc2)NC(=O)C(C)(C)NC1=O` returned an IC50 against Histone deacetylase 1 [2] of 0.33 µM. Consider `CC1(C)NC(=O)[C@H](CCCCCC(=O)[C@@H]2CO2)NC(=O)[C@H]2CCCN2C(=O)[C@H](Cc2ccccc2)NC1=O`, for which the IC50 amounted to 0.00015 µM at Histone deacetylase 1 [2], 1.1 µM in experiment [3] and 1.1 µM against Histone deacetylase 1 [1].

As for `CC1(C)NC(=O)[C@H](CCCCCC(=O)[C@H](O)CO)NC(=O)[C@H]2CCCN2C(=O)[C@H](Cc2ccccc2)NC1=O` [listing 1 of 2 here], the Ratio IC50 in experiment [4] worked out at 7000; in experiment [5], 2200. `CC1(C)NC(=O)[C@H](CCCCCC(=O)[C@H](O)CO)NC(=O)[C@H]2CCCN2C(=O)[C@H](Cc2ccccc2)NC1=O` [listing 2 of 2 here]: the half-inhibitory concentration (IC50) on Histone deacetylase 1 [2] is 0.145 µM; against Histone deacetylase 4 it was 1000 µM; in experiment [3] it was 319 µM. As to `CC1(C)NC(=O)[C@H](CCCCCC(=O)[C@@H](O)CO)NC(=O)[C@H]2CCCN2C(=O)[C@H](Cc2ccccc2)NC1=O` (stereo in doubt; form 2), at Histone deacetylase 1 [6], the inhibition constant (Ki) is 22.1 µM.

In the case of `C[C@@H](O)C(=O)CCCCC[C@@H]1NC(=O)[C@H]2CCCN2C(=O)[C@H](Cc2ccccc2)NC(=O)C(C)(C)NC1=O`, at Histone deacetylase 1 [2], 0.03 µM corresponded to half-maximal inhibition (IC50). Consider `CC1(C)NC(=O)[C@H](CCCCCC(=O)[C@H](O)CO)NC(=O)[C@H]2CCCN2C(=O)[C@H](Cc2ccccc2)NC1=O` (stereo in doubt; form 1), for which the Ki at Histone deacetylase 1 [6] turned out to be 5.65 µM. In the case of `CC1(C)NC(=O)[C@H](CCCCCC(=O)[C@@H](O)CO)NC(=O)[C@H]2CCCN2C(=O)[C@H](Cc2ccccc2)NC1=O` (stereo in doubt; form 1), the Ki on Histone deacetylase 1 [6] was determined as 11.2 µM. Same read-out and setting: the value for `CC1(C)NC(=O)[C@H](CCCCCC(=O)[C@H](O)CO)NC(=O)[C@H]2CCCN2C(=O)[C@H](Cc2ccccc2)NC1=O` (stereo in doubt; form 2) was 15.8 µM.
